Measured values taken from patent publication US20260200919A1, “SUBSTITUTED AMINOPYRIDINE COMPOUNDS AND METHODS OF TREATING DISEASE USING SAME” (Atavistik Bio, Inc., priority 2023, published 2026).

Legend:
[1] = target: T1, human recombinant kinase full-length AKT1 E17K (Homo sapiens, UniProt P31749, E17K); assay: AKT1 E17K kinase assay (TR-FRET, Lance); assay type: biochemical; conditions: 0.6 nM AKT1 E17K, 50 nM Ulight-CREBtide, either 50 μM ATP or 2 mM ATP (not specified which), 60 min at RT
T1 construct: Purified human recombinant kinase full-length AKT1 E17K was expressed in insect cells; made in house; host or cells: insect cells
Method: AKT1 E17K kinase assay: Inhibitory effects of compounds on AKT1 E17K were undertaken in a 10-pt dose response kinase activity assay measuring phospho-peptide product formation based on TR-FRET signal as described in the following paragraph.
(§1) Purified human recombinant kinase full-length AKT1 E17K was expressed in insect cells and activated in vitro by PDPK1. Ulight™-CREBtide (PerkinElmer, catalog number TRF0107) was used as the peptide substrate. The reaction buffer consisted of 50 mM HEPES pH 7.5, 10 mM MgCl2, 0.01% Triton X-100, 0.01% BSA, 2 mM DTT, 0.6 nM AKT1 E17K, 50 nM. Ulight™ CREBtide and either 50 μM ATP or 2 mM ATP. The compound solution was prepared as 10 mM DMSO stock. […] Final DMSO concentration in the assay was 1%. […] The reaction was stopped after 60 min of incubation at RT by the addition of 10 μL of Detection Mix (PerkinElmer, #CR97-100) consisting of Europium-anti-phospho-CREB (Ser133) (Perkin Elmer, catalog numberTRF0200). Incubation with the detection mix for a further 60 min allowed binding of antibody to the phospho-Ulight™ CREBtide. The fluorescence emissions at 620 nm and 665 nm after excitation at […] was measured using Envision reader. The ratio of the emissions at 665 nm and at 620 nm provided the measure for the amount of phosphorylated CREBtide product of AKT1 E17K kinase activity.

[2] = target: T2, human recombinant kinase full-length wildtype AKT1 (Homo sapiens, UniProt P31749); assay: AKT1 kinase assay (wildtype, TR-FRET, Lance); assay type: biochemical; conditions: 0.6 nM wildtype AKT1, 50 nM Ulight-CREBtide, either 50 μM ATP or 2 mM ATP (not specified which), 60 min at RT
T2 construct: Purified human recombinant kinase full-length wildtype AKT1 was expressed in insect cells; made in house; host or cells: insect cells
Method: AKT1 kinase assay: Inhibitory effects of compounds on wildtype AKT1 were undertaken in a 10-pt dose response kinase activity assay measuring phospho-peptide product formation based on TR-FRET signal as described in the following paragraph.
as §1, with “full-length wildtype” for “full-length”, “AKT1” for “AKT1 E17K”, “Ulight™—CREBtide” for “Ulight™-CREBtide”, “AKT1,” for “AKT1 E17K,”, “nM Ulight™-CREBtide” for “nM. Ulight™ CREBtide”

T2 sequence (P31749 whole entry): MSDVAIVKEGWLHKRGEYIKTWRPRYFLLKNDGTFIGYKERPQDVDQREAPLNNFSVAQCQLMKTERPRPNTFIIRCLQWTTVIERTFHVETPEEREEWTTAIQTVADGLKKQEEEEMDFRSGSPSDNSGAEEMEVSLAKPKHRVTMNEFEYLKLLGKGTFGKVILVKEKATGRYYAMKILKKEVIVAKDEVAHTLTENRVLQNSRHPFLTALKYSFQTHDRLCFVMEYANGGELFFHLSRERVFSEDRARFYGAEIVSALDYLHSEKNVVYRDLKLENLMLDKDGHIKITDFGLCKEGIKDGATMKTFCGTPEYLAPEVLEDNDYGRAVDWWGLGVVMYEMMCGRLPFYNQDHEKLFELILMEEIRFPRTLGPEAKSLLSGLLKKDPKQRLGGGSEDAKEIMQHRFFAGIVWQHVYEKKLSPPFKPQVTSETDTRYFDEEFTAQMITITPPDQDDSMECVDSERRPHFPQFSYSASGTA
T1 sequence (P31749 whole entry E17K): as the sequence (P31749 whole entry) above, with E17K counted along it

| Structure (SMILES) | IC50 [1] | IC50 [2] |
| --- | --- | --- |
| Nc1ncccc1-c1nc2ccc(-c3ccccc3)nc2n1-c1ccc(C2CN(C(=O)c3ccc(C(=O)O)cc3F)C2)cc1 [Compound 76, 4-(3-(4-(2-(2-aminopyridin-3-yl)-5-phenyl-3H-imidazo[4,5-b]pyridin-3-yl)phenyl)azetidine-1-carbonyl)-3-fluorobenzoic acid] | < 50 nM | < 500 nM |
| Cc1c(C(=O)O)cccc1C(=O)N1CC(c2ccc(-n3c(-c4cccnc4N)nc4ccc(-c5ccccc5)nc43)cc2)C1 [Compound 77, 3-(3-(4-(2-(2-aminopyridin-3-yl)-5-phenyl-3H-imidazo[4,5-b]pyridin-3-yl)phenyl)azetidine-1-carbonyl)-2-methylbenzoic acid] | 50 to 200 nM | < 500 nM |
| Nc1ncccc1-c1nc2ccc(-c3ccccc3)nc2n1-c1ccc(C2CN(C(=O)c3cccc(C(=O)O)c3F)C2)cc1 [Compound 78, 3-(3-(4-(2-(2-aminopyridin-3-yl)-5-phenyl-3H-imidazo[4,5-b]pyridin-3-yl)phenyl)azetidine-1-carbonyl)-2-fluorobenzoic acid] | 50 to 200 nM | < 500 nM |
| Nc1ncccc1-c1nc2ccc(-c3ccccc3)nc2n1-c1ccc(C2CN(Cc3cccc(CC(=O)O)c3)C2)cc1 [Compound 79, 2-(3-((3-(4-(2-(2-aminopyridin-3-yl)-5-phenyl-3H-imidazo[4,5-b]pyridin-3-yl)phenyl)azetidin-1-yl)methyl)phenyl) acetic acid] | 200 to 500 nM | < 500 nM |
| CC(=O)Nc1ccc(-c2ccc3nc(-c4cccnc4N)n(-c4ccc(CNC(=O)c5cccc(CC(=O)O)c5)cc4)c3n2)cc1 [Compound 80, 2-(3-((4-(5-(4-acetamidophenyl)-2-(2-aminopyridin-3-yl)-3H-imidazo[4,5-b]pyridin-3-yl)benzyl)carbamoyl)phenyl) acetic acid] | 200 to 500 nM | < 500 nM |
| CC(=O)Nc1cccc(-c2ccc3nc(-c4cccnc4N)n(-c4ccc(CNC(=O)c5cccc(CC(=O)O)c5)cc4)c3n2)c1 [Compound 81, 2-(3-((4-(5-(3-acetamidophenyl)-2-(2-aminopyridin-3-yl)-3H-imidazo[4,5-b]pyridin-3-yl)benzyl)carbamoyl)phenyl) acetic acid] | 50 to 200 nM | < 500 nM |
| Nc1ncccc1-c1nc2cc(-c3ccccc3)cnc2n1-c1ccc(CNC(=O)c2cccc(CC(=O)O)c2)cc1 [Compound 82, 2-(3-((4-(2-(2-aminopyridin-3-yl)-6-phenyl-3H-imidazo[4,5-b]pyridin-3-yl)benzyl)carbamoyl)phenyl) acetic acid] | 200 to 500 nM | < 500 nM |
| CC(=O)Nc1cccc(-c2cnc3c(c2)nc(-c2cccnc2N)n3-c2ccc(CNC(=O)c3cccc(CC(=O)O)c3)cc2)c1 [Compound 83, 2-(3-((4-(6-(3-acetamidophenyl)-2-(2-aminopyridin-3-yl)-3H-imidazo[4,5-b]pyridin-3-yl)benzyl)carbamoyl)phenyl) acetic acid] | 200 to 500 nM | < 500 nM |
| CC(=O)Nc1ccc(-c2cnc3c(c2)nc(-c2cccnc2N)n3-c2ccc(CNC(=O)c3cccc(CC(=O)O)c3)cc2)cc1 [Compound 84, 2-(3-((4-(6-(4-acetamidophenyl)-2-(2-aminopyridin-3-yl)-3H-imidazo[4,5-b]pyridin-3-yl)benzyl)carbamoyl)phenyl) acetic acid] | 50 to 200 nM | < 500 nM |
| Nc1ncccc1-c1nc2cc(-c3cccc(NC(=O)c4ccccc4)c3)cnc2n1-c1ccc(CNC(=O)c2cccc(CC(=O)O)c2)cc1 [Compound 85, 2-(3-((4-(2-(2-aminopyridin-3-yl)-6-(3-benzamidophenyl)-3H-imidazo[4,5-b]pyridin-3-yl)benzyl)carbamoyl)phenyl) acetic acid] | 50 to 200 nM | < 500 nM |
| Nc1ncccc1-c1nc2cc(-c3ccc(NC(=O)c4ccccc4)cc3)cnc2n1-c1ccc(CNC(=O)c2cccc(CC(=O)O)c2)cc1 [Compound 86, 2-(3-((4-(2-(2-aminopyridin-3-yl)-6-(4-benzamidophenyl)-3H-imidazo[4,5-b]pyridin-3-yl)benzyl)carbamoyl)phenyl) acetic acid] | < 50 nM | < 500 nM |
| COC(=O)Cc1ccc(C(=O)NCc2ccc(-n3c(-c4cccnc4N)nc4cc(-c5cccnc5)cnc43)cc2)cc1 [Compound 87, methyl 2-(4-((4-(2-(2-aminopyridin-3-yl)-6-(pyridin-3-yl)-3H-imidazo[4,5-b]pyridin-3-yl)benzyl)carbamoyl)phenyl)acetate] | > 500 nM | < 500 nM |
| Nc1ncccc1-c1nc2cc(-c3cccnc3)cnc2n1-c1ccc(CNC(=O)c2ccc(CC(=O)O)cc2)cc1 [Compound 88, 2-(4-((4-(2-(2-aminopyridin-3-yl)-6-(pyridin-3-yl)-3H-imidazo[4,5-b]pyridin-3-yl)benzyl)carbamoyl)phenyl) acetic acid] | > 500 nM | < 500 nM |
| COC(=O)Cc1cccc(C(=O)NCc2ccc(-n3c(-c4cccnc4N)nc4cc(-c5cccnc5)cnc43)cc2)c1 [Compound 89, methyl 2-(3-((4-(2-(2-aminopyridin-3-yl)-6-(pyridin-3-yl)-3H-imidazo[4,5-b]pyridin-3-yl)benzyl)carbamoyl)phenyl)acetate] | > 500 nM | < 500 nM |
| Nc1ncccc1-c1nc2cc(-c3cccnc3)cnc2n1-c1ccc(CNC(=O)c2cccc(CC(=O)O)c2)cc1 [Compound 90, 2-(3-((4-(2-(2-aminopyridin-3-yl)-6-(pyridin-3-yl)-3H-imidazo[4,5-b]pyridin-3-yl)benzyl)carbamoyl)phenyl) acetic acid] | > 500 nM | < 500 nM |
| COC(=O)CCc1ccc(C(=O)NCc2ccc(-n3c(-c4cccnc4N)nc4cc(-c5cccnc5)cnc43)cc2)cc1 [Compound 91, methyl 3-(4-((4-(2-(2-aminopyridin-3-yl)-6-(pyridin-3-yl)-3H-imidazo[4,5-b]pyridin-3-yl)benzyl)carbamoyl)phenyl) propanoate] | > 500 nM | < 500 nM |
| Nc1ncccc1-c1nc2cc(-c3cccnc3)cnc2n1-c1ccc(CNC(=O)c2ccc(CCC(=O)O)cc2)cc1 [Compound 92, 3-(4-((4-(2-(2-aminopyridin-3-yl)-6-(pyridin-3-yl)-3H-imidazo[4,5-b]pyridin-3-yl)benzyl)carbamoyl)phenyl) propanoic acid] | 200 to 500 nM | < 500 nM |
| COC(=O)CCc1cccc(C(=O)NCc2ccc(-n3c(-c4cccnc4N)nc4cc(-c5cccnc5)cnc43)cc2)c1 [Compound 93, methyl 3-(3-((4-(2-(2-aminopyridin-3-yl)-6-(pyridin-3-yl)-3H-imidazo[4,5-b]pyridin-3-yl)benzyl)carbamoyl)phenyl) propanoate] | > 500 nM | < 500 nM |
| Nc1ncccc1-c1nc2cc(-c3cccnc3)cnc2n1-c1ccc(CNC(=O)c2cccc(CCC(=O)O)c2)cc1 [Compound 94, 3-(3-((4-(2-(2-aminopyridin-3-yl)-6-(pyridin-3-yl)-3H-imidazo[4,5-b]pyridin-3-yl)benzyl)carbamoyl)phenyl) propanoic acid] | > 500 nM | < 500 nM |
| Nc1ncccc1-c1nc2ccc(-c3cccnc3)nc2n1-c1ccc(CNC(=O)c2ccc(CC(=O)O)cc2)cc1 [Compound 95, 2-(4-((4-(2-(2-aminopyridin-3-yl)-5-(pyridin-3-yl)-3H-imidazo[4,5-b]pyridin-3-yl)benzyl)carbamoyl)phenyl) acetic acid] | 200 to 500 nM | < 500 nM |
| Nc1ncccc1-c1nc2ccc(-c3cccnc3)nc2n1-c1ccc(CNC(=O)c2cccc(CC(=O)O)c2)cc1 [Compound 96, 2-(3-((4-(2-(2-aminopyridin-3-yl)-5-(pyridin-3-yl)-3H-imidazo[4,5-b]pyridin-3-yl)benzyl)carbamoyl)phenyl) acetic acid] | 200 to 500 nM | < 500 nM |
